Laboratory results as given in ChEMBL document CHEMBL4346678, “Synthesis and anti-cancer evaluation of folic acid-peptide- paclitaxel conjugates for addressing drug resistance” (Eur J Med Chem, 2019).
In brackets after ≈: the same amount, converted by molar mass. Activity calls are given as the source filed them. The calls are words filed in the database; no cut-off is given here. Starred links: 1 amine or outer side, 2 acyl side, 3 side chain; linkers in the order of their positions; H or OH if unused. Residues, ends and D or L forms follow the SMILES beside them. *: point of attachment. X1 = CC(=O)O[C@H]1C(=O)[C@@]2(C)[C@H]([C@H](OC(=O)c3ccccc3)[C@]3(O)C[C@H](OC(=O)[C@H](OC(=O)CCCCCN4C(=O)CC(*)C4=O)[C@@H](NC(=O)c4ccccc4)c4ccccc4)C(C)=C1C3(C)C)[C@]1(OC(C)=O)CO[C@@H]1C[C@@H]2O; Pteroyl = Nc1nc2ncc(CNc3ccc(C(=O)*)cc3)nc2c(=O)[nH]1; γGlu = O=C(O)[C@H](CCC(=O)[*:2])N[*:1]

Legend:
MCF7/PTX [1] = assay: Cytotoxicity against human MCF7/PTX cells incubated for 48 hrs by MTT assay; format: functional, cell-based
K562 = assay: Cytotoxicity against human K562 cells incubated for 48 hrs by MTT assay; format: functional, cell-based; conditions: K562, 48 h
MCF7/PTX [2] = assay: Induction of apoptosis in human MCF7/PTX cells assessed as late apoptotic cells at 3 uM incubated for 12 hrs by Annexin V-FITC/propidium iodide staining based flow cytometric analysis (reference value: 0.9%); format: functional
SK-OV-3 = assay: Cytotoxicity against human SKOV3 cells incubated for 48 hrs by MTT assay; format: functional, cell-based; conditions: SK-OV-3, 48 h
MCF7/PTX [3] = assay: Induction of apoptosis in human MCF7/PTX cells assessed as live cells at 3 uM incubated for 12 hrs by Annexin V-FITC/propidium iodide staining based flow cytometric analysis (reference value: 95.9%); format: functional
MCF7/PTX [4] = assay: Cytotoxicity against human MCF7/PTX cells at 1 to 6 uM incubated for 48 hrs by MTT assay; format: functional, cell-based
HUVEC = assay: Cytotoxicity against HUVEC incubated for 48 hrs by MTT assay; format: cell-based; conditions: Homo sapiens
MCF7/PTX [5] = assay: Induction of apoptosis in human MCF7/PTX cells assessed as necrotic cells at 3 uM incubated for 12 hrs by Annexin V-FITC/propidium iodide staining based flow cytometric analysis (reference value: 2.1%); format: functional
Erythrocyte = assay: Hemolytic activity in Wistar rat erythrocytes incubated for 1 hr; format: ADME, cell-based
A2780 = assay: Cytotoxicity against human A2780 cells incubated for 48 hrs by MTT assay; format: functional, cell-based; conditions: A2780, 48 h
MCF7/PTX [6] = assay: Induction of membrane disruption in human MCF7/PTX cells incubated for 12 hrs by LDH release assay; format: functional, cell-based
MCF7/PTX [7] = assay: Induction of apoptosis in human MCF7/PTX cells assessed as early apoptotic cells at 3 uM incubated for 12 hrs by Annexin V-FITC/propidium iodide staining based flow cytometric analysis (reference value: 1.1%); format: functional
[8] = Drug uptake in human MCF7/PTX cells at 1 to 6 uM incubated for 2 hrs using FITC-labelled compound by flow cytometric analysis; format: ADME, cell-based
MCF7 [9] = assay: Cytotoxicity against human MCF7 cells incubated for 48 hrs by MTT assay; format: functional, cell-based; conditions: MCF7, 48 h
MCF7/PTX [10] = assay: Induction of membrane disruption in human MCF7/PTX cells at 3 uM incubated for 12 hrs by AO/EB double staining based fluorescence microscopic method; format: functional, cell-based
MCF7/PTX [11] = assay: Induction of mitochondrial membrane potential loss in human MCF7/PTX cells at 3 uM incubated for 12 hrs by JC1 staining-based confocal microscopic method; format: functional, cell-based
MCF7/PTX [12] = assay: Induction of apoptosis in human MCF7/PTX cells assessed as increase in cleaved caspase 3 level in cytoplasm at 3 uM incubated for 2 hrs by Western blot analysis; format: functional, cell-based
MCF7 [13] = assay: Cytotoxicity against human MCF7 cells at 1 to 6 uM incubated for 48 hrs by MTT assay; format: functional, cell-based
MCF7/PTX [14] = assay: Induction of apoptosis in human MCF7/PTX cells assessed increase in cytochrome-c expression in cytoplasm at 3 uM incubated for 2 hrs by Western blot analysis; format: functional, cell-based
MCF7/PTX [15] = assay: Induction of membrane disruption in human MCF7/PTX cells incubated for 12 hrs by AO/EB double-staining based fluorescence microscopic method; format: functional, cell-based
[16] = Aqueous solubility of the compound; format: physicochemical; conditions: buffer
[17] = Antitumor activity against […] cells xenografted in ICR mouse assessed as reduction in tumor volume at 12 umol/kg administered once every 2 days via peritumoral route for 2 weeks measured for 22 days by caliper analysis relative to control; format: functional
Tubulin (Sus scrofa) = Tubulin (Sus scrofa) (UniProt P02554+P02550); assay: Induction of porcine brain tubulin polymerization at 3 uM by fluorescence analysis
Sequence of Tubulin (Sus scrofa) (P02550 whole entry, looked up): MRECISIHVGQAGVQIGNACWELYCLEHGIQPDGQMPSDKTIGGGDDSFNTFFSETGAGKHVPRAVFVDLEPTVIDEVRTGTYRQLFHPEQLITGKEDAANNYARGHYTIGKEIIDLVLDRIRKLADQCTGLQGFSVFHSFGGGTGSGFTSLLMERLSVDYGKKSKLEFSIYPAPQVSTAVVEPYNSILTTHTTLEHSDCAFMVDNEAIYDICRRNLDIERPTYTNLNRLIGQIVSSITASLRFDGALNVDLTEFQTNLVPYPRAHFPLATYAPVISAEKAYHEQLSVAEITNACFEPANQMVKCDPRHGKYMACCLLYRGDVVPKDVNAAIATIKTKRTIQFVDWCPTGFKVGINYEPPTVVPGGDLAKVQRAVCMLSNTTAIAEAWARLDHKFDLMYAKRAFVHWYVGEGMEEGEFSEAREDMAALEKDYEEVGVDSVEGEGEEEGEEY
Sequence of Tubulin (Sus scrofa) (P02554 whole entry, looked up): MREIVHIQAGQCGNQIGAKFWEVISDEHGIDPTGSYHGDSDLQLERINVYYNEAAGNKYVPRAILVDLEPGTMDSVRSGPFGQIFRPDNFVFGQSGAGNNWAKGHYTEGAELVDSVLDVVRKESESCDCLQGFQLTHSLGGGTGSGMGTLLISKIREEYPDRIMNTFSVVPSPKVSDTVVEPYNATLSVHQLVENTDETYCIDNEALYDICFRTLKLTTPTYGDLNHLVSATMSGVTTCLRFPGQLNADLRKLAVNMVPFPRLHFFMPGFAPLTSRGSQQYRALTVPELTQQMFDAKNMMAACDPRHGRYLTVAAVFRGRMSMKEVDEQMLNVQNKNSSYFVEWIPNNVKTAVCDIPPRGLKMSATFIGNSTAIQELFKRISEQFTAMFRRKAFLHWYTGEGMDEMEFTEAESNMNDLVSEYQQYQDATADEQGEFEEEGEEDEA

MCF7/PTX [18] = assay: Induction of apoptosis in human MCF7/PTX cells assessed as live cells at 3 uM incubated for 12 hrs by Annexin V-FITC/propidium iodide staining based flow cytometric analysis in presence of paclitaxel (reference value: 95.9%); format: functional
[19] = Half life in Wistar rat plasma at 500 ug/ml measured over 24 hrs at 37 degC by UPLC/MS analysis; format: ADME, cell-free
MCF7/PTX [20] = assay: Induction of apoptosis in human MCF7/PTX cells assessed as late apoptotic cells at 3 uM incubated for 12 hrs by Annexin V-FITC/propidium iodide staining based flow cytometric analysis in presence of paclitaxel (reference value: 0.9%); format: functional
MCF7/PTX [21] = assay: Induction of apoptosis in human MCF7/PTX cells assessed as necrotic cells at 3 uM incubated for 12 hrs by Annexin V-FITC/propidium iodide staining based flow cytometric analysis in presence of paclitaxel (reference value: 2.1%); format: functional
MCF7/PTX [22] = assay: Induction of apoptosis in human MCF7/PTX cells assessed as early apoptotic cells at 3 uM incubated for 12 hrs by Annexin V-FITC/propidium iodide staining based flow cytometric analysis in presence of paclitaxel (reference value: 1.1%); format: functional

| Compound | IC50 (MCF7/PTX [1]) | IC50 (K562) | Activity (MCF7/PTX [2]) | IC50 (SK-OV-3) | Activity (MCF7/PTX [3]) | Activity (MCF7/PTX [4]) | IC50 (HUVEC) | Activity (MCF7/PTX [5]) | Activity (Erythrocyte) | IC50 (A2780) | Activity (MCF7/PTX [6]) | Activity (MCF7/PTX [7]) | Drug uptake [8] | IC50 (MCF7 [9]) | Activity (MCF7/PTX [10]) | other results |
| --- | --- | --- | --- | --- | --- | --- | --- | --- | --- | --- | --- | --- | --- | --- | --- | --- |
| CC(=O)O[C@H]1C(=O)[C@@]2(C)[C@H]([C@H](OC(=O)c3ccccc3)[C@]3(O)C[C@H](OC(=O)[C@H](OC(=O)CCCCCN4C(=O)CC(SC[C@H](NC(=O)[C@H](CCCCN)NC(=O)[C@H](CCCCN)NC(=O)[C@H](CC(C)C)NC(=O)[C@H](CCCCN)NC(=O)[C@H](CCCNC(=N)N)NC(=O)[C@H](Cc5ccccc5)NC(=O)[C@H](Cc5ccccc5)NC(=O)[C@H](CCCCN)NC(=O)[C@H](CCCCN)NC(=O)[C@H](Cc5ccccc5)NC(=O)[C@H](CCCNC(=N)N)NC(=O)[C@H](CCCCN)NC(=O)[C@@H](NC(=O)[C@@H](N)CC(C)C)C(C)C)C(=O)N[C@H](C(=O)N[C@@H](CC(C)C)C(=O)N[C@@H](CC(C)C)C(N)=O)C(C)C)C4=O)[C@@H](NC(=O)c4ccccc4)c4ccccc4)C(C)=C1C3(C)C)[C@]1(OC(C)=O)CO[C@@H]1C[C@@H]2O (stereo not given in full) (H-LVKRFKKFFRKLKKC(X1)VLL-NH2) | 6.11 µM | 5.9 µM | 20.2% | 7.17 µM | 74.4% | inactive | 31.6 µM | 3.2% | Toxic | 2.69 µM | Dose-dependent effect | 2.2% | Active | 2.15 µM | Active | – |
| CC(=O)O[C@H]1C(=O)[C@@]2(C)[C@H]([C@H](OC(=O)c3ccccc3)[C@]3(O)C[C@H](OC(=O)[C@H](OC(=O)CCCCCN4C(=O)CC(SC[C@H](NC(=O)[C@H](CCCNC(=N)N)NC(=O)[C@H](CCCNC(=N)N)NC(=O)[C@H](CC(C)C)NC(=O)[C@H](CCCNC(=N)N)NC(=O)[C@H](CCCNC(=N)N)NC(=O)[C@H](Cc5ccccc5)NC(=O)[C@H](Cc5ccccc5)NC(=O)[C@H](CCCNC(=N)N)NC(=O)[C@H](CCCNC(=N)N)NC(=O)[C@H](Cc5ccccc5)NC(=O)[C@H](CCCNC(=N)N)NC(=O)[C@H](CCCNC(=N)N)NC(=O)[C@@H](NC(=O)[C@@H](N)CC(C)C)C(C)C)C(=O)N[C@H](C(=O)N[C@@H](CC(C)C)C(=O)N[C@@H](CC(C)C)C(N)=O)C(C)C)C4=O)[C@@H](NC(=O)c4ccccc4)c4ccccc4)C(C)=C1C3(C)C)[C@]1(OC(C)=O)CO[C@@H]1C[C@@H]2O (stereo not given in full) (H-LVRRFRRFFRRLRRC(X1)VLL-NH2) | 5.53 µM | 3.82 µM | 30.2% | 6.61 µM | 64.7% | – | 37.2 µM | 3.6% | Toxic | 2.79 µM | Dose-dependent effect | 1.7% | – | 1.98 µM | Active | – |
| CC(=O)O[C@H]1C(=O)[C@@]2(C)[C@H]([C@H](OC(=O)c3ccccc3)[C@]3(O)C[C@H](OC(=O)[C@H](OC(=O)CCCCCN4C(=O)CC(SC[C@H](NC(=O)[C@H](CCCCN)NC(=O)[C@H](CCCCN)NC(=O)[C@H](CC(C)C)NC(=O)[C@H](CCCCN)NC(=O)[C@H](CCCNC(=N)N)NC(=O)[C@H](Cc5ccccc5)NC(=O)[C@H](Cc5ccccc5)NC(=O)[C@H](CCCCN)NC(=O)[C@H](CCCCN)NC(=O)[C@H](Cc5ccccc5)NC(=O)[C@H](CCCNC(=N)N)NC(=O)[C@H](CCCCN)NC(=O)[C@@H](NC(=O)[C@H](CC(C)C)NC(=O)CC[C@H](NC(=O)c5ccc(NCc6cnc7nc(N)[nH]c(=O)c7n6)cc5)C(=O)O)C(C)C)C(=O)N[C@H](C(=O)N[C@@H](CC(C)C)C(=O)N[C@@H](CC(C)C)C(N)=O)C(C)C)C4=O)[C@@H](NC(=O)c4ccccc4)c4ccccc4)C(C)=C1C3(C)C)[C@]1(OC(C)=O)CO[C@@H]1C[C@@H]2O (stereo not given in full) ({Pteroyl-γGlu}-LVKRFKKFFRKLKKC(X1)VLL-NH2) | 4.54 µM | 5.38 µM | 34.6% | 5.92 µM | 56.3% | Active | 48.6 µM | 8% | Toxic | 1.95 µM | Dose-dependent effect | 1.1% | Active | 1.79 µM | Active | Activity (MCF7/PTX [11]): Active; Activity (MCF7/PTX [12]): Active; Activity (MCF7 [13]): Active; Activity (MCF7/PTX [14]): Active; Activity (MCF7/PTX [15]): Dose-dependent effect |
| CC(=O)O[C@H]1C(=O)[C@@]2(C)[C@H]([C@H](OC(=O)c3ccccc3)[C@]3(O)C[C@H](OC(=O)[C@H](O)[C@@H](NC(=O)c4ccccc4)c4ccccc4)C(C)=C1C3(C)C)[C@]1(OC(C)=O)CO[C@@H]1C[C@@H]2O [PACLITAXEL] | 54.8 µM | 5.8 µM | 1.5% | 6.29 µM | 93.2% | – | 9.39 µM | 3.9% | – | 2.85 µM | – | 1.3% | – | – | – | solubility [16]: 4 µg/mL (≈ 4.68 µM); inhibition in vivo at 12 µmol/kg [17]: 49%; Activity (Tubulin (Sus scrofa)): Active |
| H-LVKRFKKFFRKLKKCVLL-NH2 | 15.2 µM | 13.7 µM | 2.6% | 14.7 µM | 91.1% | – | 40.2 µM | 4.6% | – | 13.6 µM | – | 1.6% | – | 12.3 µM | – | – |
| H-LVRRFRRFFRRLRRCVLL-NH2 | 17.1 µM | 9.49 µM | 9% | 13.6 µM | 83.5% | – | 44.5 µM | 5.7% | – | 11.5 µM | – | 1.7% | – | 8.61 µM | – | Activity (MCF7/PTX [18]): 76.7%; half-life at 500 ug/ml [19]: 48 min; Activity (MCF7/PTX [20]): 15.9%; Activity (MCF7/PTX [21]): 5.8%; Activity (MCF7/PTX [22]): 1.7% |
